From ChEMBL document CHEMBL3885881, “DrugMatrix”

Tests used:
Rattus norvegicus [1] = species on record: Rattus norvegicus; assay type: toxicity, organism-based, Sprague-Dawley; conditions: in vivo, po, 0 mg/kg, 24 h, vehicle control, route oral GAVAGE, dose level Control, time 1 day, vehicle .5 % CMC
Description: DrugMatrix - Regimen: Single

Rattus norvegicus [2] = species on record: Rattus norvegicus; assay: DrugMatrix - Regimen: Daily Repeat; assay type: toxicity, organism-based, Sprague-Dawley; parameters: regimen Daily Repeat, gender Male, age 6-8 weeks; conditions: in vivo, po, 0 mg/kg, route oral GAVAGE, dose level Control, vehicle .5 % CMC; for ABSOLUTE BASOPHIL / ABSOLUTE EOSINOPHIL / ABSOLUTE LYMPHOCYTE / ABSOLUTE MONOCYTE / ABSOLUTE SEGMENTED NEUTROPHIL / BASOPHIL / EOSINOPHIL / ERYTHROCYTE COUNT / HEMATOCRIT / HEMOGLOBIN / LEUKOCYTE COUNT / LYMPHOCYTE / MEAN CORPUSCULAR HEMOGLOBIN / MEAN CORPUSCULAR HEMOGLOBIN CONCENTRATION / MEAN CORPUSCULAR VOLUME / MONOCYTE / NEUTROPHIL / NUCLEATED RED BLOOD CELLS / PLATELET COUNT: tissue Blood; for ALANINE AMINOTRANSFERASE / ALBUMIN / ALKALINE PHOSPHATASE / ASPARTATE AMINOTRANSFERASE / BLOOD UREA NITROGEN / CARBON DIOXIDE / CHLORIDE / CHOLESTEROL / CREATININE / GLUCOSE / LACTATE DEHYDROGENASE / LIPASE / PHOSPHORUS / POTASSIUM / SODIUM / TOTAL BILIRUBIN / TOTAL PROTEIN / URIC ACID: tissue Plasma

## ClC(Br)Br [DIBROMOCHLOROMETHANE]
Rattus norvegicus [1]; tissue Blood
  ABSOLUTE EOSINOPHIL: 150 CELLS/uL
  ABSOLUTE LYMPHOCYTE: 13279.83 CELLS/uL
  ABSOLUTE MONOCYTE: 654.5 CELLS/uL
  ABSOLUTE SEGMENTED NEUTROPHIL: 1565.67 CELLS/uL
  BASOPHIL: 0%
  EOSINOPHIL: 1%
  ERYTHROCYTE COUNT: 5.36 x10E6/uL
  HEMATOCRIT: 33.37%
  HEMOGLOBIN: 12.52 G/DL
  LEUKOCYTE COUNT: 15.65 x10E3/uL
  LYMPHOCYTE: 84.83%
  MEAN CORPUSCULAR HEMOGLOBIN: 23.4 pg
  MEAN CORPUSCULAR HEMOGLOBIN CONCENTRATION: 37.52 G/DL
  MEAN CORPUSCULAR VOLUME: 62.32 fL
  MONOCYTE: 4.17%
  NEUTROPHIL: 10%
  NUCLEATED RED BLOOD CELLS: 0 /100WBC
  PLATELET COUNT: 1020 x10E3/uL
Rattus norvegicus [1]; tissue Plasma
  ALANINE AMINOTRANSFERASE: 49 u/L
  ALBUMIN: 4.47 G/DL
  ALKALINE PHOSPHATASE: 361.17 u/L
  ASPARTATE AMINOTRANSFERASE: 78.67 u/L
  BLOOD UREA NITROGEN: 13.17 mg/dL
  CARBON DIOXIDE: 29.67 mmol/L
  CHLORIDE: 100.83 MEQ/L
  CHOLESTEROL: 82.17 mg/dL
  CREATININE: 0.15 mg/dL
  GLUCOSE: 150.83 mg/dL
  LACTATE DEHYDROGENASE: 239.17 u/L
  LIPASE: 7.83 u/L
  PHOSPHORUS: 13.82 mg/dL
  POTASSIUM: 6.62 MEQ/L
  SODIUM: 144.25 MEQ/L
  TOTAL BILIRUBIN: 0.15 mg/dL
  TOTAL PROTEIN: 6.2 G/DL
  URIC ACID: 1.57 mg/dL
Rattus norvegicus [2]; 72 h, time 3 day
  ABSOLUTE BASOPHIL: 0 CELLS/uL
  ABSOLUTE EOSINOPHIL: 279.83 CELLS/uL
  ABSOLUTE LYMPHOCYTE: 13152.5 CELLS/uL
  ABSOLUTE MONOCYTE: 1013.83 CELLS/uL
  ABSOLUTE SEGMENTED NEUTROPHIL: 2420.5 CELLS/uL
  BASOPHIL: 0%
  EOSINOPHIL: 1.67%
  ERYTHROCYTE COUNT: 5.26 x10E6/uL
  HEMATOCRIT: 32.22%
  HEMOGLOBIN: 12.02 G/DL
  LEUKOCYTE COUNT: 16.87 x10E3/uL
  LYMPHOCYTE: 77.83%
  MEAN CORPUSCULAR HEMOGLOBIN: 22.93 pg
  MEAN CORPUSCULAR HEMOGLOBIN CONCENTRATION: 37.32 G/DL
  MEAN CORPUSCULAR VOLUME: 61.4 fL
  MONOCYTE: 6%
  NEUTROPHIL: 14.5%
  NUCLEATED RED BLOOD CELLS: 0 /100WBC
  PLATELET COUNT: 1122.17 x10E3/uL
  ALANINE AMINOTRANSFERASE: 55.67 u/L
  ALBUMIN: 4.35 G/DL
  ALKALINE PHOSPHATASE: 362.67 u/L
  ASPARTATE AMINOTRANSFERASE: 96 u/L
  BLOOD UREA NITROGEN: 18 mg/dL
  CARBON DIOXIDE: 27.5 mmol/L
  CHLORIDE: 100.17 MEQ/L
  CHOLESTEROL: 74.5 mg/dL
  CREATININE: 0.17 mg/dL
  GLUCOSE: 141.67 mg/dL
  LACTATE DEHYDROGENASE: 682.5 u/L
  LIPASE: 10 u/L
  PHOSPHORUS: 11.5 mg/dL
  POTASSIUM: 6.41 MEQ/L
  SODIUM: 141.2 MEQ/L
  TOTAL BILIRUBIN: 0.18 mg/dL
  TOTAL PROTEIN: 5.88 G/DL
  URIC ACID: 1.4 mg/dL
Rattus norvegicus [2]; 120 h, time 5 day
  ABSOLUTE BASOPHIL: 0 CELLS/uL
  ABSOLUTE EOSINOPHIL: 18.5 CELLS/uL
  ABSOLUTE LYMPHOCYTE: 8146.83 CELLS/uL
  ABSOLUTE MONOCYTE: 204.83 CELLS/uL
  ABSOLUTE SEGMENTED NEUTROPHIL: 1329.83 CELLS/uL
  BASOPHIL: 0%
  EOSINOPHIL: 0.17%
  ERYTHROCYTE COUNT: 5.37 x10E6/uL
  HEMATOCRIT: 33.17%
  HEMOGLOBIN: 12.07 G/DL
  LEUKOCYTE COUNT: 9.7 x10E3/uL
  LYMPHOCYTE: 85.33%
  MEAN CORPUSCULAR HEMOGLOBIN: 22.52 pg
  MEAN CORPUSCULAR HEMOGLOBIN CONCENTRATION: 36.42 G/DL
  MEAN CORPUSCULAR VOLUME: 61.78 fL
  MONOCYTE: 1.83%
  NEUTROPHIL: 12.67%
  NUCLEATED RED BLOOD CELLS: 0 /100WBC
  PLATELET COUNT: 907.5 x10E3/uL
  ALANINE AMINOTRANSFERASE: 58.5 u/L
  ALBUMIN: 4.4 G/DL
  ALKALINE PHOSPHATASE: 377.67 u/L
  ASPARTATE AMINOTRANSFERASE: 140.33 u/L
  BLOOD UREA NITROGEN: 15.33 mg/dL
  CARBON DIOXIDE: 32.17 mmol/L
  CHLORIDE: 100 MEQ/L
  CHOLESTEROL: 71.83 mg/dL
  CREATININE: 0.18 mg/dL
  GLUCOSE: 185 mg/dL
  LACTATE DEHYDROGENASE: 241.5 u/L
  LIPASE: 9.5 u/L
  PHOSPHORUS: 13.02 mg/dL
  POTASSIUM: 6.45 MEQ/L
  SODIUM: 143.45 MEQ/L
  TOTAL BILIRUBIN: 0.22 mg/dL
  TOTAL PROTEIN: 6.1 G/DL
  URIC ACID: 1 mg/dL
Rattus norvegicus [2]; […], time 14 day
  ABSOLUTE BASOPHIL: 0 CELLS/uL
  ABSOLUTE EOSINOPHIL: 117.17 CELLS/uL
  ABSOLUTE LYMPHOCYTE: 13562 CELLS/uL
  ABSOLUTE MONOCYTE: 534.83 CELLS/uL
  ABSOLUTE SEGMENTED NEUTROPHIL: 2486 CELLS/uL
  BASOPHIL: 0%
  EOSINOPHIL: 0.83%
  ERYTHROCYTE COUNT: 6.14 x10E6/uL
  HEMATOCRIT: 36.87%
  HEMOGLOBIN: 13.87 G/DL
  LEUKOCYTE COUNT: 16.7 x10E3/uL
  LYMPHOCYTE: 81%
  MEAN CORPUSCULAR HEMOGLOBIN: 22.63 pg
  MEAN CORPUSCULAR HEMOGLOBIN CONCENTRATION: 37.62 G/DL
  MEAN CORPUSCULAR VOLUME: 60.15 fL
  MONOCYTE: 3.17%
  NEUTROPHIL: 15%
  NUCLEATED RED BLOOD CELLS: 0 /100WBC
  PLATELET COUNT: 974.83 x10E3/uL
  ALANINE AMINOTRANSFERASE: 52.33 u/L
  ALBUMIN: 4.48 G/DL
  ALKALINE PHOSPHATASE: 346.17 u/L
  ASPARTATE AMINOTRANSFERASE: 81 u/L
  BLOOD UREA NITROGEN: 15.67 mg/dL
  CARBON DIOXIDE: 34.33 mmol/L
  CHLORIDE: 100.17 MEQ/L
  CHOLESTEROL: 70.83 mg/dL
  CREATININE: 0.22 mg/dL
  GLUCOSE: 141.17 mg/dL
  LACTATE DEHYDROGENASE: 121.33 u/L
  LIPASE: 8.33 u/L
  PHOSPHORUS: 9.97 mg/dL
  POTASSIUM: 6.4 MEQ/L
  SODIUM: 143.72 MEQ/L
  TOTAL BILIRUBIN: 0.22 mg/dL
  TOTAL PROTEIN: 6.45 G/DL
  URIC ACID: 1.25 mg/dL
